Source: BindingDB's records for doi:10.1021/jm040794i (2005)

Columns and labels:
[1] = target: Somatostatin receptor type 5 (Homo sapiens, UniProt P35346); assay: In vitro inhibition of [125I][Leu8,D-Trp22,Tyr25] somatostatin 28 binding to human somatostatin receptor type 5 expressed in CHO-K1 cells; (n=3)
[2] = target: Somatostatin receptor type 1 (Homo sapiens, UniProt P30872); assay: In vitro inhibition of [125I][Leu8,D-Trp22,Tyr25] somatostatin 28 binding to human somatostatin receptor type 1 expressed in CHO-K1 cells; (n=3)
Somatostatin receptor type 1, sequence (P30872 whole entry): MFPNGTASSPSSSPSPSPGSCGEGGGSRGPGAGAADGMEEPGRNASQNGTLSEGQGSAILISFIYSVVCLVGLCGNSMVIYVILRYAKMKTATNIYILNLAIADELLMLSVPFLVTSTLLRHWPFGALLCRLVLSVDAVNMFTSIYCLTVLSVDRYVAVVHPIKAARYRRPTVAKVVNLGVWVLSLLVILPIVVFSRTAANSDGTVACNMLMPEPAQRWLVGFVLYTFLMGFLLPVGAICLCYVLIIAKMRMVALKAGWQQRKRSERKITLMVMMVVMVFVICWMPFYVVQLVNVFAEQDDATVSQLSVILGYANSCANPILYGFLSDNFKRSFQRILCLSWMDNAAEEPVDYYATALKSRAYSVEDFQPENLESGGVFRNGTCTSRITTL

Somatostatin receptor type 5, sequence (P35346 whole entry): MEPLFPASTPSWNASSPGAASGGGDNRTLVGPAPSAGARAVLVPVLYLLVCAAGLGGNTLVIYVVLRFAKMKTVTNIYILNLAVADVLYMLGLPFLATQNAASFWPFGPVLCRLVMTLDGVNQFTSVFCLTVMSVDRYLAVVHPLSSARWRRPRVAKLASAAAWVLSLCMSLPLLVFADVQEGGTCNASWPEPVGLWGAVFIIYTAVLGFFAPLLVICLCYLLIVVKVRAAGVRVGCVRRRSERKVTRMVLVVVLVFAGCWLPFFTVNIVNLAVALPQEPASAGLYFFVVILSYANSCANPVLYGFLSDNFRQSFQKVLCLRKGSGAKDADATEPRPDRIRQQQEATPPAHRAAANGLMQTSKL

| IC50 [1] [nM] | IC50 [2] [µM] | SMILES |
| --- | --- | --- |
| 377 |  | C[C@@H](O)[C@H](NC(=O)[C@@H]1CSSC[C@H](NC(=O)[C@@H](Cc2ccccc2)NC(=O)CN2CCN(CC(=O)O)CCN(CC(=O)O)CCN(CC(=O)O)CC2)C(=O)N[C@@H](Cc2ccc(O)cc2)C(=O)N[C@H](Cc2c[nH]c3ccccc23)C(=O)N[C@@H](CCCCN)C(=O)N[C@@H]([C@@H](C)O)C(=O)N1)C(=O)O |
|  | > 10 | C[C@@H](O)[C@H](NC(=O)[C@@H]1CSSC[C@H](NC(=O)[C@H](N)Cc2ccccc2)C(=O)N[C@@H](Cc2ccc(O)c(I)c2)C(=O)N[C@H](Cc2c[nH]c3ccccc23)C(=O)N[C@@H](CCCCN)C(=O)N[C@@H]([C@@H](C)O)C(=O)N1)C(=O)O [4-[(4R,7S,10S,13R,16S)-19-(2-azaniumyl-3-phenylpropanamido)-4-{[(1S)-1-carboxy-2-hydroxypropyl]carbamoyl}-16-[(4-hydroxy-3-iodophenyl)methyl]-7-(1-hydroxyethyl)-13-(1H-indol-3-ylmethyl)-6,9,12,15,18-pentaoxo-1,2-dithia-5,8,11,14,17-pentaazacycloicosan-10-yl]butan-1-aminium] |
